This is an account of results in US10544136B2, “Modulators of sphingosine phosphate receptors” (The Scripps Research Institute, priority 2008, dated 2020).

Where only a bound is given, the exact number is not on record here.

The target of one test is S1P1 (Homo sapiens (Human), UniProt P21453). Nature of the test: S1P1 agonist assay (Ec50 S1P1Ag). The test is classed as cell-based.
S1P1, sequence (P21453 whole entry): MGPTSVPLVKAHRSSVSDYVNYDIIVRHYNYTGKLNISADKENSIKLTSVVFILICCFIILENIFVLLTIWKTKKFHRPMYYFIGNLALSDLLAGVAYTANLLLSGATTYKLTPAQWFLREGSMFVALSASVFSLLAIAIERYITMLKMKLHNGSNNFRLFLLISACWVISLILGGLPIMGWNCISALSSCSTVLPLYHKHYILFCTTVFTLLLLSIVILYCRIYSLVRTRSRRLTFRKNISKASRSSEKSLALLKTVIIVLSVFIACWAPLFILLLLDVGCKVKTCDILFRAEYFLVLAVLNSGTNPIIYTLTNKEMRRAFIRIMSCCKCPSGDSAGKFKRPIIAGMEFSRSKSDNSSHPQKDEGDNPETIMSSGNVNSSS
Conditions: not given
The text has this:
The exact dosage will depend upon the activity of the compound, mode of administration, on the therapy desired, form in which administered, the subject to be treated and the body weight of the subject to be treated, and the preference and experience of the physician or veterinarian in charge. S1P1 agonist bioactivity of the compounds of the invention can be determined by use of an in vitro assay system which measures the activation of S1P1, which can be expressed as EC50 values, as are well known in the art inhibitors of the invention can be determined by the method described in the Examples.
Broadly, the EC50 is the concentration at which the effect is half-maximal. Read a high EC50 as lower potency in that assay. “4-(5-(4-isopropoxy-3-(trifluoromethyl)phenyl)-1,2,4-oxadiazol-3-yl)-2,3-dihydro-1H-inden-1-ol [Compound 261]” displayed a half-maximal effective concentration (EC50) below 0.0005 µM.
On the same count and under the same terms, for `COc1cc(OC)c(-c2nc(-c3ccncc3)no2)cc1OC` [Compound 11] the value was 6.5 µM; for `Nc1cc(-c2nc(-c3ccc(S(N)(=O)=O)cc3)no2)ccn1` [Compound 18], 0.397 µM.
In the case of `NS(=O)(=O)c1ccc(-c2noc(-c3cc(Cl)nc(Cl)c3)n2)cc1` [Compound 22], the EC50 turned out to be 1.03 µM.
Same read-out and setting: for `COc1cc(-c2noc(-c3cccnc3)n2)ccc1C` [Compound 24] the value was 1.8 µM; for `COc1cc(-c2noc(-c3cc(C)nc(Cl)c3)n2)ccc1C` [Compound 28], 0.477 µM; for `COc1cc(-c2noc(-c3ccnc(Cl)c3)n2)ccc1C` [Compound 29], 0.576 µM.
The compound `COc1cc(-c2noc(-c3cc(CC(C)C)no3)n2)ccc1C` [Compound 30] displayed an EC50 of 1.39 µM.
The compound `CCOc1ccc(-c2nc(-c3ccccn3)no2)cc1OCC` [Compound 33] registered an EC50 of 0.116 µM.
On the same count and under the same terms, the result for `CCOc1cccc(-c2nc(-c3ccncc3)no2)c1` [Compound 38] reads 0.938 µM; that for `COc1cc(-c2nc(-c3ccncc3)no2)ccc1C` [Compound 39], 0.418 µM; that for `COc1cc(-c2nc(-c3ccc(C)c(OC)c3)no2)ccn1` [Compound 40], 0.621 µM.
The same measure, in the same setting: for `COc1cc(-c2noc(-c3ccnnc3)n2)ccc1C` [Compound 41] the value was 7.7 µM.
The compound `COc1cc(-c2noc(Cc3ccncc3)n2)ccc1C` [Compound 42] registered an EC50 of 0.909 µM.
Still for that read-out and setting: for `COc1cc(-c2noc(-c3ccncc3)n2)ccc1C` [Compound 44] the value was 0.731 µM; for `COc1cc(-c2noc(-c3cc(Cl)nc(Cl)c3)n2)ccc1C` [Compound 45], 1.48 µM.
Turning to `COc1cc(-c2noc(-c3ccc(C#N)c(C)c3)n2)ccc1C` [Compound 46], the EC50 is 0.544 µM. This EC50 is about 2.7-fold lower than that of the compound before.
Still for that read-out and setting: the result for `CCn1nc(C)cc1-c1nc(-c2ccc(C)c(OC)c2)no1` [Compound 48] reads 0.295 µM.
Still for that read-out and setting: the result for `Cc1ccc(-c2nc(-c3ccncc3)no2)cc1C(F)(F)F` [Compound 49] reads 0.487 µM.
The same measure, in the same setting: the result for `CCCCc1ccc(-c2nc(-c3ccncc3)no2)cc1` [Compound 51] reads 0.847 µM; that for `c1cc(-c2noc(-c3ccc(C4CCCCC4)cc3)n2)ccn1` [Compound 56], 0.0834 µM; that for `CCn1nc(C)cc1-c1nc(-c2ccncc2)no1` [Compound 57], 0.29 µM.
`FC(F)(F)c1cc(-c2nc(-c3cccnc3)no2)ccc1-c1ccccc1` [Compound 63]: the EC50 worked out at 0.129 µM.
The compound `CCOc1cccc(-c2nc(-c3ccncc3C)no2)c1` [Compound 64] displayed an EC50 of 0.228 µM.
As to `CCOc1cccc(-c2nc(-c3ccnc(N)c3)no2)c1` [Compound 65], the EC50 came out at 0.319 µM. This EC50 and that of the compound before are within 1.5-fold of each other.
The compound `CCOc1cccc(-c2nc(-c3cncc(C)c3)no2)c1` [Compound 66] yielded an EC50 of 1.99 µM.
On the same count and under the same terms, the result for `Cc1cnccc1-c1noc(-c2ccc(C)c(C(F)(F)F)c2)n1` [Compound 68] reads 0.0377 µM; that for `Cc1ccc(-c2nc(-c3ccnc(N)c3)no2)cc1C(F)(F)F` [Compound 69], 0.197 µM.
`COc1cc(-c2nc(-c3cncc(C)c3)no2)ccc1C` [Compound 74] came in with an EC50 of 0.601 µM.
Same read-out and setting: for `COc1cc(-c2nc(-c3cccnc3)no2)ccc1C` [Compound 75] the value was 0.274 µM; for `CCOc1ccc(-c2nc(-c3cccc(CN4CCCC4)c3)no2)cc1OCC` [Compound 77], 0.45 µM; for `CCOc1ccc(-c2nc(-c3cccc(CN(C)C)c3)no2)cc1OCC` [Compound 78], 0.0452 µM.
On the same count and under the same terms, for `CCOc1ccc(-c2nc(-c3ccc(CN4CCCC4)cc3)no2)cc1OCC` [Compound 80] the value was 0.0865 µM.
With `CCOc1ccc(-c2nc(-c3ccc(CN(C)C)cc3)no2)cc1OCC` [Compound 81], the EC50 worked out at 0.123 µM.
Compound `FC(F)(F)c1cc(-c2nc(-c3ccc(CN4CCCC4)cc3)no2)ccc1-c1ccccc1` [Compound 82] had an EC50 of 0.048 µM.
Compound `CCOc1ccc(-c2nnc(-c3ccncc3)o2)cc1OCC` [Compound 89] returned an EC50 of 0.224 µM.
Still for that read-out and setting: the result for `CCOc1ccc(-c2nnc(-c3ccncc3)[nH]2)cc1OCC` [Compound 93] reads 2.8 µM.
The same measure, in the same setting: for `CCOc1ccc(-c2nc(-c3ccc(N4CCN(C)CC4)cc3C)no2)cc1OCC` [Compound 100] the value was 0.0863 µM.
On the same count and under the same terms, for `c1ccc(Cc2nc(-c3ccncc3)no2)cc1` [Compound 105] the value was 8.4 µM; for `CCC(c1ccccc1)c1nc(-c2ccncc2)no1` (centres unmarked) [Compound 109], 1.5 µM; for `CCOc1ccc(-c2nc(-c3cccc(Br)c3C)no2)cc1OCC` [Compound 121], 0.639 µM.
Regarding `CCOc1ccc(-c2nc(-c3ccc(C#N)cc3C)no2)cc1OCC` [Compound 122], the half-maximal effective concentration (EC50) came to 0.005 µM.
The same measure, in the same setting: for `CCOc1ccc(-c2nc(-c3ccc4cc[nH]c4c3)no2)cc1OCC` [Compound 124] the value was 0.003 µM.
The compound `CCOc1ccc(-c2nc(-c3ccc(CN4CCCC4)cc3C)no2)cc1OCC` [Compound 125] registered an EC50 of 0.171 µM. Compared with the last compound, the EC50 is about 57-fold higher.
Still for that read-out and setting: the result for `CCOc1ccc(-c2nc(-c3ccc(CN(C)C)cc3C)no2)cc1OCC` [Compound 128] reads 0.0191 µM; that for `CCOc1ccc(-c2nc(-c3ccc4c(c3)NCC4)no2)cc1OCC` [Compound 150], 0.0042 µM; that for `CCOc1ccc(-c2nc(-c3ccc4c(c3)NC(=O)C4)no2)cc1OCC` [Compound 155], 0.0017 µM.
The same measure, in the same setting: for `CCOc1ccc(-c2nc(-c3cccc(N)c3C)no2)cc1OCC` [Compound 165] the value was 0.0294 µM; for `CCOc1ccc(-c2nc(-c3cccc(C)c3C)no2)cc1OCC` [Compound 166], 0.0125 µM; for `CCOc1ccc(-c2nc(-c3ccc(C4=NCCN4)cc3)no2)cc1OCC` [Compound 181], 0.733 µM.
The same measure, in the same setting: for `CCOc1ccc(-c2nc(-c3ccc(Br)c(C)c3)no2)cc1OCC` [Compound 185] the value was 0.245 µM.
Regarding `CCOc1ccc(-c2nc(-c3ccc(CCN4CCCC4)cc3)no2)cc1OCC` [Compound 191], the EC50 was found to be 0.0538 µM.
The same measure, in the same setting: the result for `CCOc1ccc(-c2nc(-c3ccc(CO)c(C)c3)no2)cc1OCC` [Compound 200] reads 0.104 µM; that for `CCOc1ccc(-c2nc(-c3ccc(CN4CCCC4)c(C)c3)no2)cc1OCC` [Compound 202], 0.0358 µM; that for `CCOc1ccc(-c2nc(-c3cccc4[nH]cc(CNCCN(CC)CC)c34)no2)cc1OCC` [Compound 204], 0.0322 µM.
Same read-out and setting: for `CCOc1ccc(-c2nc(-c3ccc(OC(F)(F)F)cc3)no2)cc1OCC` [Compound 206] the value was above 5 µM; for `CCOc1ccc(-c2nc(-c3cc4ccccc4cn3)no2)cc1OCC` [Compound 208], 0.154 µM; for `CCOc1ccc(-c2nc(-c3ccc(CN4C[C@H](O)C[C@H]4C(=O)N(C)C)cc3C)no2)cc1OCC` [Compound 210], 0.164 µM.
Same read-out and setting: the result for `CCOc1ccc(-c2nc(-c3ccc4ccccc4c3)no2)cc1OCC` [Compound 212] reads 0.341 µM; that for `CCOc1ccc(-c2nc(-c3cccc4[nH]cc(CNC(C)(C)CO)c34)no2)cc1OCC` [Compound 213], 0.636 µM; that for `CCOc1ccc(-c2nc(-c3cccc4c3CCC4O)no2)cc1OCC` (centres unmarked) [Compound 215, 4-(5-(3,4-diethoxyphenyl)-1,2,4-oxadiazol-3-yl)-2,3-dihydro-1H-inden-1-ol], 0.0001 µM.
As for `CCOc1ccc(-c2nc(-c3cccc4c3CCC4NC(C)(C)CO)no2)cc1OCC` (centres unmarked) [Compound 216], the EC50 was determined as 0.0915 µM. Compared with the last compound, the EC50 is about 910-fold higher.
Still for that read-out and setting: for `CCOc1ccc(-c2nc(-c3ccnc(CNC(C)(C)CO)c3)no2)cc1OCC` [Compound 218] the value was 0.132 µM.
On the same count and under the same terms, for `CCOc1ccc(-c2nc(-c3nccc4ccccc34)no2)cc1OCC` [Compound 219] the value was 0.013 µM.
Still for that read-out and setting: for `CCOc1ccc(-c2nc(-c3cncc(C(=O)OC)c3)no2)cc1OCC` [Compound 220] the value was 0.028 µM; for `CCOc1ccc(-c2nc(-c3cccc4[nH]cc(CN(C)CCO)c34)no2)cc1OCC` [Compound 221], 1.4 µM.
In the case of `CCOc1ccc(-c2nc(-c3cccc4[nH]cc(CNCCN(C)C)c34)no2)cc1OCC` [Compound 222], the EC50 stood at 0.284 µM.

The same test, now with this note: unit μM/uM.
Regarding `COc1cc(-c2nc(-c3ccc(C(F)(F)F)cc3)no2)ccn1` [Compound 1], the EC50 worked out at 466 µM.
`FC(F)(F)c1ccc(-c2noc(-c3cccnc3)n2)cc1` [Compound 2] returned an EC50 of 6.5 µM.
Still for that read-out and setting: the result for `[O-][n+]1ccc(-c2nc(-c3ccc(C(F)(F)F)cc3)no2)cc1` [Compound 3] reads 5.9 µM; that for `FC(F)(F)c1ccc(-c2noc(-c3ccnnc3)n2)cc1` [Compound 4], 7.8 µM; that for `Fc1cc(-c2nc(-c3ccc(C(F)(F)F)cc3)no2)ccn1` [Compound 6], 4.1 µM.
Still for that read-out and setting: for `COc1ccc(-c2nc(-c3ccccc3)no2)cc1` [Compound 8] the value was 73 µM; for `CC(C)COc1ccc(-c2nc(-c3ccncc3)no2)cc1` [Compound 9], 68.4 µM.
For the compound `CC(C)(C)c1cc(-c2nc(-c3ccc(S(N)(=O)=O)cc3)no2)cc(C(C)(C)C)c1` [Compound 14], it took 12.3 µM to reach a half-maximal effect (EC50).
On the same count and under the same terms, the result for `COc1cc(-c2nc(-c3ccc(S(N)(=O)=O)cc3)no2)ccn1` [Compound 19] reads 12 µM.
Same read-out and setting: the result for `COc1cc(-c2noc(-c3cc4ccccc4s3)n2)ccc1C` [Compound 47] reads 31.8 µM; that for `CCOc1cccc(-c2nc(-c3cccnc3)no2)c1` [Compound 67], 95.5 µM.
Same read-out and setting: the result for `Cc1cc(-c2noc(-c3ccc(C)c(C(F)(F)F)c3)n2)ccn1` [Compound 70] reads 7.08 µM.
The compound `CCOc1ccc(-c2nc(-c3cccc(OC(F)(F)F)c3)no2)cc1OCC` [Compound 205] returned an EC50 of 10 µM.
